# In patent publication US20240418701A1, “SINGLE MOLECULE IDEN[…] A REACTIVE HETERO-NANOPORE” (priority 2021, published 2024):
# Like-named read-outs stand apart in the source and are kept apart here.
# How the values were obtained:
# [1] = biological target: T1, MspA-PBA (phenylboronic acid modified hetero-octameric (N90C)1(M2)7 MspA) (Mycolicibacterium smegmatis, UniProt A0QR29, D117C/D118N/D120N/D145R/D161R/E166K); assay type: binding, Mycobacterium smegmatis; conditions: +200 mV; for 1/τoff / 1/τon / Calibration coefficient δ (NMP binding events per unit concentration per min): three independent measurements; for % Ib (percentage blockage) / S.D. (noise amplitude of blockage level) / τoff (mean dwell time) / τon (mean inter-event interval): N=3; for Calibration coefficient δ (NMP binding events per unit concentration per min): sole NMP 300 μM in cis
# T1 construct: H6 (hexa-histidine) (C); 3-(maleimide) phenylboronic acid (MPBA) adduct on the thiol of Cys90; made in house; host or cells: E. coli BL21 (DE3) pLysS, co-expression from pETDuet-1
# Description: FIG. 46: Definition of event parameters. […] The measurement was carried out as described in Methods in Example 2. The chambers were filled with a 1.5 M KCl buffer (1.5 M KCl, 10 mM MOPS, pH 7.0). A transmembrane potential of +200 mV was continually applied. AMP was added to cis with a final concentration of 300 μM. The open pore current (Ip), the residual current (Ib), the dwell time (τoff) and the inter-event duration (τon) are defined as marked on the trace. The percentage blockage (% Ib) is defined as (Ip−Ib)/Ip. The noise amplitude (S.D.) is defined as the standard deviation of the blockage level.
# (§1) NMPs consist of a ribose, a phosphate group and a nucleobase, serving as monomeric units of RNA. […] Experimentally, single channel recording was performed using MspA-PBA in a 1.5 M KCl buffer (1.5 M KCl, 10 mM MOPS, pH 7.0) (Methods in Example 2). A transmembrane potential of +200 mV was continually applied. Four canonical NMPs, adenine mononucleotide (AMP), guanine mononucleotide (GMP), cytosine mononucleotide (CMP) and uracil mononucleotide (UMP) were tested as analytes (FIG. 33d). Either type of NMP was added to cis at a final concentration of 300 μM. Subsequently, successive resistive pulses caused by either type of NMP were immediately observed (FIG. 33d). However, no events were observed when M2 MspA was tested, confirming that the PBA located at the pore constriction is critical in the generation of NMP sensing events (FIG. 44). At this condition, ˜1800 events/h were obtained from each pore. The pore could normally withstand a few hours of continuous measurement. Deoxyribonucleoside monophosphate (dNMP) fails to report any event when sensed by MspA-PBA (FIG. 45). This is expected because dNMPs have no cis-diol structure and can't form the boronate ester which is necessary for sensing. The molecular mechanism of sensing which results from reversible covalent bond formation between an NMP and the PBA at the pore constriction is thus confirmed.
# To describe NMP sensing events quantitatively, the event dwell time (τoff), the inter-event interval (τon), the percentage blockage (% Ib=(Ip−Ib)/Ip) and the noise amplitude (S.D.) were derived as described in FIG. 46. Generally, the histograms of τoff and τon show an exponential distribution, and could be fitted to derive the mean time constants τoff or τon, respectively. The histograms of % Ib and S.D. show a Gaussian distribution, which could be fitted to derive the mean percentage blockage % Ib and S.D., respectively. During NMP sensing, by varying the NMP concentrations in cis, the reciprocal of dwell time (1/τoff) remains constant, consistent with a unimolecular dissociation mechanism. Whereas the reciprocal of the inter-event interval (1/τon) linearly correlates with the NMP concentration in cis (Tables 8-11, FIG. 47-50), consistent with a bimolecular model. The dependence of the applied voltage during NMP sensing was investigated using AMP as a representative analyte. […] This is expected because in a pH 7.0 buffer, the phosphate group of NMP is negatively charged and the electrophoretic force applied on the NMP analyte can strongly regulate the rate of event appearance and the event dwell time.
# M2 MspA = M2 MspA (Mycolicibacterium smegmatis, UniProt A0QR29, D117N/D118N/D120N/D145R/D161R/E166K); assay: NMP sensing performed with M2 MspA (control without PBA); assay type: binding, Mycobacterium smegmatis; conditions: NMP 1 mM in cis, +200 mV
# Chain of M2 MspA (A0QR29 28-211 D117N/D118N/D120N/D145R/D161R/E166K): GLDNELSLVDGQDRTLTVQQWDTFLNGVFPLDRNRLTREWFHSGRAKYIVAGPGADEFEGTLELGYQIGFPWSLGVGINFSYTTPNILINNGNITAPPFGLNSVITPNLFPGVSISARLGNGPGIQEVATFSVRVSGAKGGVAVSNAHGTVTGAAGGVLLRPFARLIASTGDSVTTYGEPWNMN
# Description: FIG. 44: NMP sensing performed with M2 MspA. (a-d) Representative traces of (a) CMP, (b) UMP, (c) AMP, (d) GMP sensing performed with M2 MspA. All measurements were carried out as described in Methods in Example 2 in a 1.5 M KCl buffer (1.5 M KCl, 10 mM MOPS, pH 7.0). A +200 mV bias was continually applied. NMPs were added to cis with a final concentration of 1 mM for each analyte.
# as §1
Structure (SMILES),1/τoff ([1]; NMP 100 μM in cis),1/τon ([1]; NMP 100 μM in cis),1/τoff ([1]; NMP 200 μM in cis),1/τon ([1]; NMP 200 μM in cis),% Ib (percentage blockage) ([1]; NMP 300 μM in cis),S.D. (noise amplitude of blockage level) ([1]; NMP 300 μM in cis),τoff (mean dwell time) ([1]; NMP 300 μM in cis),τon (mean inter-event interval) ([1]; NMP 300 μM in cis),"% Ib (percentage blockage) ([1]; NMP 300 μM in cis, listed as C)",1/τoff ([1]; NMP 300 μM in cis),1/τon ([1]; NMP 300 μM in cis),1/τoff ([1]; NMP 400 μM in cis),1/τon ([1]; NMP 400 μM in cis),1/τoff ([1]; NMP 500 μM in cis),1/τon ([1]; NMP 500 μM in cis),Calibration coefficient δ (NMP binding events per unit concentration per min) [1],binding events with M2 MspA (M2 MspA),"% Ib (percentage blockage) ([1]; NMP 300 μM in cis, listed as G)","% Ib (percentage blockage) ([1]; NMP 300 μM in cis, listed as U)"
"Nc1ccn([C@@H]2O[C@H](COP(=O)(O)O)[C@@H](O)[C@H]2O)c(=O)n1 [CMP, Cytidine-5′-monophosphate]",19.0 ± 1.9 s⁻¹,0.30 ± 0.06 s⁻¹,20.9 ± 0.3 s⁻¹,0.47 ± 0.05 s⁻¹,7.1±0.2%,3.23 ± 0.09 pA,47.6 ± 0.9 ms,1511.6 ± 108.3 ms,7.1 ± 0.2%,21.0 ± 0.4 s⁻¹,0.66 ± 0.05 s⁻¹,20.5 ± 0.6 s⁻¹,0.86 ± 0.05 s⁻¹,20.6 ± 1.1 s⁻¹,1.01 ± 0.13 s⁻¹,0.133 ± 0.010 µM⁻¹ min⁻¹,No binding events were observed,–,–
"Nc1nc2c(ncn2[C@@H]2O[C@H](COP(=O)(O)O)[C@@H](O)[C@H]2O)c(=O)[nH]1 [GMP, guanosine-5′-monophosphate]",11.5 ± 0.9 s⁻¹,0.02 ± 0.07 s⁻¹,10.6 ± 1.4 s⁻¹,0.50 ± 0.12 s⁻¹,11.8±0.2%,3.02 ± 0.13 pA,96.3 ± 10.4 ms,1473.1 ± 44.4 ms,–,10.5 ± 1.1 s⁻¹,0.68 ± 0.02 s⁻¹,10.2 ± 0.2 s⁻¹,0.83 ± 0.04 s⁻¹,11.4 ± 1.3 s⁻¹,1.00 ± 0.04 s⁻¹,0.136 ± 0.004 µM⁻¹ min⁻¹,No binding events were observed,11.8 ± 0.2%,–
"O=c1ccn([C@@H]2O[C@H](COP(=O)(O)O)[C@@H](O)[C@H]2O)c(=O)[nH]1 [UMP, uridine-5′-monophosphate]",7.8 ± 0.9 s⁻¹,0.28 ± 0.08 s⁻¹,7.4 ± 1.4 s⁻¹,0.36 ± 0.02 s⁻¹,8.64±0.09%,2.14 ± 0.06 pA,130.3 ± 14.8 ms,2097.9 ± 474.7 ms,–,7.7 ± 0.9 s⁻¹,0.49 ± 0.08 s⁻¹,8.2 ± 0.4 s⁻¹,0.56 ± 0.11 s⁻¹,8.7 ± 0.4 s⁻¹,0.68 ± 0.09 s⁻¹,0.097 ± 0.014 µM⁻¹ min⁻¹,No binding events were observed,–,8.64 ± 0.09%
